Data: US12509482B2, “3′-ketoglycoside compound for the slow release of a volatile alcohol” (GLYCOSCIENCE, S.L., priority 2020, dated 2025)
Where two headings read alike, the source gives them in different places. Each block holds one compound with its values, some of them ahead of it.

Assays:
Format in all cases: physicochemical
[1] = Example 30: competitive release of alcohol from substrate stock solutions A-D (methyl-O-α-D-3′-ketoglucopyranoside, methyl-O-α-D-glucopyranoside, phenyl-O-β-D-3′-ketoglucopyranoside, phenyl-O-β-D-glucopyranoside, each with 4-nitrophenyl-O-β-D-glucopyranoside), 0.1 M phosphate buffer, 37° C., presence and absence of fresh skin wash; settings: for alcohol release (in words): 37° C.
From the text: In this example, phenyl-O-β-D-3′-ketoglucopyranoside, methyl-O-α-D-3′-ketoglucopyranoside, phenyl-O-β-D-glucopyranoside, methyl-O-α-D-glucopyranoside and 4-nitrophenyl-O-β-D-glucopyranoside were used as model compounds to determine the rate of release of their respective alcohol rests under different conditions.
The competitive rate of release of methanol or phenol and 4-nitrophenol from a 1:1 stoichiometric mixture of (2R,5S,6S)-3,5-dihydroxy-2-(hydroxymethyl)-6-phenoxytetrahydro-4H-pyran-4-one (phenyl-O-β-D-3′-ketoglucopyranoside) or (2R,3R,5S,6S)-3,5-dihydroxy-2-(hydroxymethyl)-6-methoxytetrahydro-4H-pyran-4-one (methyl-O-α-D-3′ketoglucopyranoside) and their respective 0-glucopyranosides against (2R,3S,4S,5R,6S)-2-(hydroxymethyl)-6-(4-nitrophenoxy)tetrahydro-2H-pyran-3,4,5-triol (4-nitrophenyl-O-β-D-glucopyranoside) in 0.1 M deuterated phosphate buffer solutions at pH 5.7 and 7.0 containing 10% D6-DMSO at room temperature in the presence and absence of fresh skin washing solution was determined.
1 M Stock solutions of sodium dihydrogen phosphate and disodium hydrogen phosphate were prepared in deuterated water (D2O).
4-Nitrophenyl-O-β-D-glucopyranoside (50 mg) was dissolved in D6-DMSO (1 mL) and 0.2 mL of the resultant solution added to each of 10 mg of methyl-O-α-D-3′-ketoglucopyranoside, methyl-O-α-D-glucopyranoside, phenyl-O-β-D-3′-ketoglucopyranoside and phenyl-O-β-D-glucopyranoside to give substrate stock solutions A, B, C and D respectively.
In a typical experiment, a stock solution of fresh skin wash suspension was prepared by swabbing a 25 cm^2 area of cheek skin of a human volunteer by robustly rubbing the area with a cotton wool gauze (5×5 cm^2) soaked in D2O (12.5 mL) for 1 minute and then resuspending the gauze in the D2O solution, rapidly shaking and removing the gauze after squeezing out as much liquid as possible with a spatula.
1 M Stock solutions of phosphate buffer, pH 5.7 and 7.0 were prepared by appropriately mixing 1 M stock phosphate salts solutions to the correct pH as determined using a calibrated pH meter.
Half of each buffer stock solution was diluted ten times with D2O and the other with the above skin washing stock solution to give a 0.1 M phosphate buffer in D2O with a final pH of 5.7, 0.1 M phosphate buffer in D2O with a final pH of 7.0, a 0.1 M phosphate buffer in skin wash solution with a final pH of 5.7 and a 0.1 M phosphate buffer in skin wash solution with a final pH of 7.0.
To sixteen parallel reaction vials, was added 0.45 mL of low or high pH 0.1M phosphate buffer in D2O or 0.45 mL of low or high pH 0.1M phosphate buffer in skin wash solution followed by 0.05 mL of one of the glycoside substrate solutions in D6-DMSO and the mixtures incubated by shaking at 37° C. After times indicated in the table below, the mixtures where analysed by ^1H-NMR with 128 scans using a 400 MHz instrument and the colour observed visually, with the results shown in Table XVII: […]

[2] = Example 13: release of 4-nitrophenol from substrate A (4-nitrophenyl-O-β-D-3′-ketoglucopyranoside) vs substrate B (4-nitrophenyl-O-β-D-glucopyranoside), 0.1 M deuterated phosphate buffer or water, 10% D6-DMSO, room temperature; settings: varying solution pH; room temperature; 0.5 mL of aqueous solution
Method: In this example, 4-nitrophenyl-O-β-D-3′-ketoglucopyranoside and 4-nitrophenyl-O-beta-D-glucopyranoside were used as model compounds to determine the rate of release of an aromatic alcohol (4-nitrophenol) under different conditions.
Rate of release of 4-nitrophenol from (2R,3R,5S,6S)-3,5-dihydroxy-2-(hydroxymethyl)-6-(4-nitrophenoxy)tetrahydro-4H-pyran-4-one (4-nitrophenyl-O-β-D-3′-ketoglucopyranoside) was determined in comparison to (2R,3S,4S,5R,6S)-2-(hydroxymethyl)-6-(4-nitrophenoxy)tetrahydro-2H-pyran-3,4,5-triol (para-nitrophenyl-O-β-D-glucopyranoside) in 0.1 M deuterated phosphate buffer solutions of differing pH containing 10% D6-DMSO or in water containing 10% D6-DMSO at room temperature.
1 M Stock solutions of sodium dihydrogen phosphate and disodium hydrogen phosphate were prepared in deuterated water (D2O). Stock solutions of 25 mg of 4-nitrophenyl-O-β-D-3′-ketoglucopyranoside (substrate A), 25 mg of 4-nitrophenyl-O-β-D-glucopyranoside (substrate B) in 0.5 mL of D6-DMSO were each prepared and a stock solution of 11 mg of 4-nitrophenol in the same volume of D6-DMSO for visual comparison.
Solutions of pH 4.5, 5.8, 7.4 and 9.5 were prepared by dilution of the appropriate individual or mixture of stock phosphate salt solutions to 0.1 M using a calibrated pH meter.
To ten parallel reaction vials was added 0.05 mL of one of the glycoside substrate stock solutions in D6-DMSO, 0.5 mL of the appropriate deuterated buffer solution or 0.5 mL of water were indicated in Table I below. The reaction vials were allowed to stand at room temperature and the colour of the solutions recorded by visual observation relative to the colour of authentic 4-nitrophenol solutions diluted in the same way, as shown in Table I:
After approximately 26 h, reactions 2 to 5 were all analysed by ^1H-NM R using 128 scans on a 400 MHz instrument.

[3] = Example 21: release of methanol from substrate A (methyl-O-α-D-3′-ketoglucopyranoside) vs substrate B (methyl-O-α-D-glucopyranoside), 0.1 M phosphate buffer or water, room temperature then 37° C.
Method: In this example, methyl-O-α-D-3′-ketoglucopyranoside and methyl-O-α-D-glucopyranoside were used as model compounds to determine the rate of release of an aliphatic alcohol (methanol) under different conditions.
1 M Stock solutions of sodium dihydrogen phosphate and disodium hydrogen phosphate were prepared in deuterated water (D2O). Stock solutions of 15 mg of methyl-O-α-D-3′-ketoglucopyranoside (substrate A) and methyl-O-α-D-glucopyranoside (substrate B) were each prepared by dissolving in 0.3 mL of D6-DMSO.
Solutions of pH 4.5, 5.8 and 7.4 were prepared by dilution of the appropriate individual or mixture of stock phosphate salt solutions to 0.1 M using a calibrated pH meter.
To eight parallel reaction vials was added 0.05 mL of one of the glycoside substrate solutions in D6-DMSO, 0.5 mL of the appropriate deuterated buffer solution or 0.5 mL of water were indicated in the table below and the mixtures analysed by ^1H-NMR with 128 scans using a 400 MHz instrument to give an initial time reading.
The mixtures were then analysed in the same way after allowing to stand at room temperature for a further 22 h.
The mixtures were then incubated by shaking at 37° C. for a further 44 h and analysed in the same way.

[4] = Description: alcohol release from model compounds (III), (IV) and compound (V) in buffer, water and skin washings; settings: for phenol release (in words): after 60 h
[5] = pH 5.7, presence and absence of skin washing

Compound: O=[N+]([O-])c1ccc(O[C@@H]2O[C@H](CO)[C@@H](O)[C@H](O)[C@H]2O)cc1 [4-nitrophenyl-O-β-D-glucopyranoside, (2R,3S,4S,5R,6S)-2-(hydroxymethyl)-6-(4-nitrophenoxy)tetrahydro-2H-pyran-3,4,5-triol]
- alcohol release (in words) ([1]; pH 7, presence and absence of skin washings): release some 4-nitrophenol visually at pH 7 and typically to a greater extent in the presence of skin washings, but to such a low extent that no change was observed by NMR
- 4-nitrophenol release (in words) [2]: releases virtually no 4-nitrophenol

Compound: CO[C@H]1O[C@H](CO)[C@@H](O)C(=O)[C@H]1O [methyl-O-α-D-3′-ketoglucopyranoside, (2R,3R,5S,6S)-3,5-dihydroxy-2-(hydroxymethyl)-6-methoxytetrahydro-4H-pyran-4-one]
- stability / methanol release (in words) ([3]; 37° C., pH range tested and water): stable at pH 4.5 and 5.8, but very slowly generates methanol at pH 7.4
- alcohol release (in words) [1, 5]: no reaction is observed
- methanol release (in words) ([4]; 0.1M sodium phosphate buffer in D2O, pH 7.0, 37° C., after 36 h): slowly liberates methanol
- stability (in words) ([4]; deionised water, acidic pH): remained stable in deionised water and relatively stable at acidic pH
- methanol release in the presence of skin washings (in words) ([4]; same temperature and pH (37° C., pH 7.0)): significantly more methanol than had been observed in buffer alone

Compound: CO[C@H]1O[C@H](CO)[C@@H](O)[C@H](O)[C@H]1O [methyl-O-α-D-glucopyranoside]
- stability / methanol release (in words) [3]: remains stable over the pH range tested and in water
- stability (in words) ([1]; all conditions tested (pH 5.7 and 7.0, with and without skin washing, 37° C.)): stable under all conditions tested

Further lines, with some results ahead:

- phenol release (in words) ([4]; buffer alone): a small quantity of conjugate remained
- phenol release (in words) ([4]; in the presence of skin washing): complete release of phenol
Compound: O=C1[C@@H](O)[C@H](Oc2ccccc2)O[C@H](CO)[C@H]1O [phenyl-O-β-D-3′-ketoglucopyranoside, (2R,5S,6S)-3,5-dihydroxy-2-(hydroxymethyl)-6-phenoxytetrahydro-4H-pyran-4-one]
- alcohol release (in words) [1, 5]: reacts slower than at pH 7 and to the same extent in the presence and absence of skin washing

- stability (in words) ([1]; pH 5.7): stable under all conditions tested
Compound: OC[C@H]1O[C@@H](Oc2ccccc2)[C@H](O)[C@@H](O)[C@@H]1O [phenyl-O-β-D-glucopyranoside]
